We go through 19 molecules from PubChem BioAssay AID540323 (Johns Hopkins Ion Channel Center, 2011).

The source made the active and inactive calls.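 The calls were made as follows: active = peak hERG channel inhibition above 30% at some tested dose, together with a fitted dose response curve; inactive = no hERG inhibition at any dose, or no curve.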

The target of one assay is Voltage-gated inwardly rectifying potassium channel KCNH2 (Homo sapiens) (UniProt Q12809). Briefly: KCNH2 potassium channel blockade – FluxOR Tl flux, hERG cells, CRC 2, selectivity assay for KCNK9 inhibitor project, SAR follow-up (AID 540323). As to conditions: hERG-expressing cells, FluxOR thallium flux fluorescence; at 30 µM (top of the series); test wells contain dofetilide at its IC70.
Voltage-gated inwardly rectifying potassium channel KCNH2 (Homo sapiens), sequence (Q12809 whole entry, looked up): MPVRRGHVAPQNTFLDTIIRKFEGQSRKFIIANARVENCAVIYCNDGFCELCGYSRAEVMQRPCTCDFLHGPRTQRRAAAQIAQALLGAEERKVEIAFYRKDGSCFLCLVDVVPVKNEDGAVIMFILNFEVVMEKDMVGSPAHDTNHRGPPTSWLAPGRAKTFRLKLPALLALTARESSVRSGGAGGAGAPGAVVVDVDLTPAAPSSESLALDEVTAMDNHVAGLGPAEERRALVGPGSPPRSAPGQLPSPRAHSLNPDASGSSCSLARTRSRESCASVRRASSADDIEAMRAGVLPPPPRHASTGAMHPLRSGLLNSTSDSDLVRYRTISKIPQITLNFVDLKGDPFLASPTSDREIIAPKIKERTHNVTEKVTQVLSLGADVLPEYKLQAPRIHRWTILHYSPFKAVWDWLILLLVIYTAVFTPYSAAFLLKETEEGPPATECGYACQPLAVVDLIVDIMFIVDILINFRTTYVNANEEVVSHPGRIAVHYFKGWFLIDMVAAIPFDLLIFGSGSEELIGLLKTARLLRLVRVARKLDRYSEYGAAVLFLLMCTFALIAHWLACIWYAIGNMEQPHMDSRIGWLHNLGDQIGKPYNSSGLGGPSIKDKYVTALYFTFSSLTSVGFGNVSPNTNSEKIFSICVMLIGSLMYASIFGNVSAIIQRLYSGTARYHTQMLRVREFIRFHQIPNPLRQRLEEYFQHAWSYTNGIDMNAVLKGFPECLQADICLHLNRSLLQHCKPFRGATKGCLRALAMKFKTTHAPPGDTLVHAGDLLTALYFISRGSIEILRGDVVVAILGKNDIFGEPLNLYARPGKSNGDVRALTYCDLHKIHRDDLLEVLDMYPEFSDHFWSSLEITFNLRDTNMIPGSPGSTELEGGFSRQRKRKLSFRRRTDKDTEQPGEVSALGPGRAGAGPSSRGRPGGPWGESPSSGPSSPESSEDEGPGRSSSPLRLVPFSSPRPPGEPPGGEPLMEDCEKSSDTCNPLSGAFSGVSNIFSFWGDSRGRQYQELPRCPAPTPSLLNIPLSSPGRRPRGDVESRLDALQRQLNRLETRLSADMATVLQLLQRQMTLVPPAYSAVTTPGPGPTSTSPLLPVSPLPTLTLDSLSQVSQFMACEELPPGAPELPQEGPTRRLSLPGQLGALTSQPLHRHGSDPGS
Turning to `Cc1cccc(C(=O)Nc2cccc(NC(=O)c3ccccc3OCC(C)C)c2)c1`, the “fluorescence ratio, lower = inhibition” value is “inactive”. Consider `O=C(Nc1cccc(NC(=O)c2ccsc2)c1)c1ccccc1`, for which the “fluorescence ratio, lower = inhibition” value was “inactive”. The same measure, in the same setting: for `Cc1cccc(C(=O)Nc2ccccc2NC(=O)c2ccccc2)c1` the value was “inactive”; for `Cc1cccc(C(=O)Nc2cccc(NC(=O)c3ccc(C(F)(F)F)cc3)c2)c1`, “inactive”; for `COc1ccccc1NC(=O)c1cccc(NC(=O)CC2CCCC2)c1`, “inactive”. Still for that read-out and setting: as for `CC(C1CC2CCC1C2)n1c(-c2ccc(Cl)cc2)n[nH]c1=S` (centres undefined), the entry is “inactive”. On to `COc1ccc(C(=O)Nc2cccc(NC(=O)c3ccccc3)c2)cc1`, for which the “fluorescence ratio, lower = inhibition” value was “inactive”. Still for that read-out and setting: for `Cc1cccc(C(=O)Nc2cccc(NC(=O)c3ccccc3Cl)c2)c1` the value was “inactive”; for `COc1ccccc1C(=O)Nc1cccc(NC(=O)c2ccccc2C(C)C)c1`, “inactive”. The same measure, in the same setting: as for `CCOc1ccccc1NC(=O)c1cccc(NC(=O)c2ccccc2OC)c1`, the entry is “inactive”; as for `O=C(Nc1cccc(NC(=O)c2ccc(C(F)(F)F)cc2)c1)c1ccccc1`, “inactive”; as for `Cc1cccc(C(=O)Nc2cccc(NC(=O)c3cccc(C(F)(F)F)c3)c2)c1`, “inactive”. With `O=C(Nc1cccc(NC(=O)c2ccccc2Cl)c1)c1ccccc1`, the “fluorescence ratio, lower = inhibition” value was “inactive”. Regarding `O=C(Nc1cccc(NC(=O)c2ccncc2)c1)c1ccccc1`, the “fluorescence ratio, lower = inhibition” value was “inactive”. Same read-out and setting: as for `Cc1ccccc1C(=O)Nc1cccc(NC(=O)c2ccccc2)c1`, the entry is “inactive”; as for `COc1cccc(-c2n[nH]c(=S)n2C(C)C2CC3CCC2C3)c1` (centres undefined), “inactive”; as for `COc1cccc(C(=O)Nc2cccc(NC(=O)c3ccccc3)c2)c1`, “inactive”. In the case of `CCOc1ccccc1NC(=O)c1cccc(NC(=O)C2CCCO2)c1` (centres undefined), the “fluorescence ratio, lower = inhibition” value is “inactive”.

Staying with this assay, now noted: hERG-expressing cells, FluxOR thallium flux fluorescence; test wells contain dofetilide at its IC70.
Regarding `Cc1cccc(C(=O)Nc2cccc(NC(=O)c3ccccc3)c2)c1`, the IC50 is 8.08 µM.
